Columns and labels:
[1] = Critical aggregation concentration (CAC) by dynamic light scattering in pH-adjusted PBS; assay type: physicochemical; conditions: for CAC over a range of pH values: DLS; for critical aggregation concentration (CAC) as a function of pH: pH 7.4 vs 5.5, DLS
Procedure: CAC values are calculated by preparing colloidal formulations with different concentrations and measuring the scattering intensity (or fluorescence intensity when appropriate). The data is then fit to Equation S4, which was derived from first principles (Equations S1-S3), using the MATLAB curve fitting toolbox to obtain the critical aggregation concentration (CAC) under the conditions used.
Colloids were formulated as described in Example 1. […] 100 μL of each sample was analyzed by DLS and the CAC's calculated as described in Example 1.
Colloids were formulated as described in Example 1. Briefly, solutions of fulvestrant analogue in DMSO were prepared at various concentrations and then diluted 100-fold with PBS at different […]. 100 μL of each sample was analyzed by DLS and the CAC's calculated as described in Example 1.
Colloids were formulated as described in Example 1. Briefly, solutions of siramesine in DMSO were prepared at various concentrations and then diluted 100-fold with pH-adjusted PBS containing stabilizer (where applicable). 100 μL of each sample was analyzed by DLS and the CACs calculated as described in Example 1.

[2] = Acid responsiveness of colloids prepared at different pH (spun down, absorbance); assay type: physicochemical; conditions: with or without Herceptin as stabilizing agent
Procedure: The colloids were prepared in different pH conditions, spun down, extracted from the supernatant by organic solvent, dried, reconstituted in DMSO and measured for absorbance.

[3] = Membrane permeability assay; assay type: in vitro ADME; conditions: co-colloids 50 μM lapatinib, 150 μM fulvestrant, 0.04 mg/mL PLAC-PEG, 10% FBS, 6 h, 37° C., acidified vs not
Procedure: Supported artificial lipid membranes were prepared according to the manufacturer instructions (EMD Millipore cat #MATRNPS50). Briefly, a 1% (w/w) solution of egg lecithin in dodecane was prepared by sonicating until the solution was no longer cloudy. A 5 μL aliquot of this phospholipid solution was dropped by pipette into each well of the mesh plate, which wet the membrane and caused it to become translucent. Receiver solution was prepared as 1% (v/v) DMSO and 10% (v/v) FBS in PBS and 340 μL was pipetted into each well of the receiver plate. Lapatinib and fulvestrant solutions ranging from 0 to 5 μM for constructing the standard curve were prepared in identical media and pipetted into separate wells of the receiver plate. Colloids were prepared in PBS containing 10% (v/v) FBS as described above, and 150 μL was pipetted into the mesh plate wells corresponding to the receiver solution in the receiver plate. The mesh plate and receiver plate were gently mated, resulting in the receiver solution wetting the bottom of the phospholipid membrane. […] Finally, the stack was carefully disassembled and a 200 μL sample of receiver and standard curve solutions was withdrawn for drug quantification as described below. […]
Drug concentration in samples from drug release and membrane permeability assays was quantified by high pressure liquid chromatography coupled with tandem mass spectrometry (HPLC-MS-MS). […]

[4] = Drug release from colloids (centrifugation, drug in supernatant by HPLC-MS-MS); assay type: physicochemical; conditions: for amount of drug released from co-colloids as a function of pH / drug release over time after acidification to pH 5.5: 12.5 μM lapatinib, 37.5 μM fulvestrant, 0.01 mg/mL PLAC-PEG in PBS
Procedure: Drug release was measured by centrifuging to pellet the colloids, and then by quantifying the drug in the supernatant. Colloid formulations were centrifuged at 16,000×g for 1 h, followed by withdrawal of 100 μL for quantification. Another 100 μL was withdrawn for DLS analysis to confirm that the colloids had completely settled out of solution. Non-centrifuged colloid suspensions were used as controls.
Drug concentration in samples from drug release and membrane permeability assays was quantified by high pressure liquid chromatography coupled with tandem mass spectrometry (HPLC-MS-MS). Protein was precipitated from samples in serum containing media by spiking with 10 μL of formic acid and adding acetonitrile to a final volume of 1 mL. The precipitated samples were then centrifuged at 16,000×g for 5 min to pellet the proteins. The drug-containing supernatant was then diluted in methanol such that the final drug concentration was less than 100 ng mL^−1. During the final dilution, internal standards (nilotinib for lapatinib and norethindrone for fulvestrant) were added to a final concentration of 25 ng/mL each. Standard curves were prepared in a similar way, by diluting 100 mM solutions of drug in DMSO with methanol to final concentrations of 100, 75, 50, 25, 10, 5, 2.5, and 1 ng mL^−1, each with 25 ng mL^−1 of internal standard.

[5] = Zeta potential; assay type: physicochemical; conditions: 0.1 mM KCl
Procedure: Colloids were prepared as described above, but with a single addition of 0.1 mM KCl solution instead of water and buffer. Zeta potential was immediately assessed using a Malvern Nano-ZS (Malvern Panalytical).

Structure (SMILES) | CAC over a range of pH values [1] | critical aggregation concentration (CAC) as a function of pH [1] | acid responsiveness of colloidal drug aggregate [2] | transmembrane diffusion [3] | amount of drug released from co-colloids as a function of pH [4] | drug release over time after acidification to pH 5.5 [4] | ionization state of released lapatinib ([4]; calculated by acid-base theory from release data, low pH) | zeta potential (surface charge) [5]
CNC(=O)c1cc(Oc2ccc(NC(=O)Nc3ccc(Cl)c(C(F)(F)F)c3)cc2)ccn1 [sorafenib] | not pH-dependent | did not dissolve on acidification | did not demonstrate acid responsiveness | – | – | – | – | –
CS(=O)(=O)CCNCc1ccc(-c2ccc3ncnc(Nc4ccc(OCc5cccc(F)c5)c(Cl)c4)c3c2)o1 [lapatinib] | – | pH-dependent CACs | – | reduced when the colloids were acidified | increased with increasing acidity | rapidly reached an equilibrium that was sustained for 24 h | Most lapatinib that is released at low pH is ionized | –
Clc1ccccc1C(c1ccccc1)(c1ccccc1)n1ccnc1 [clotrimazole] | – | pH-dependent CACs | – | – | – | – | – | –
C[C@]12CC[C@@H]3c4ccc(O)cc4C[C@@H](CCCCCCCCC[S+]([O-])CCCC(F)(F)C(F)(F)F)[C@H]3[C@@H]1CC[C@@H]2O (stereo partly drawn) [fulvestrant] | No change in CAC values | did not dissolve on acidification | – | – | unaffected by pH | remained unresponsive to acid | – | negative zeta potential
Fc1ccc(-n2cc(CCCCN3CCC4(CC3)OCc3ccccc34)c3ccccc32)cc1 [siramesine] | increase in CAC values | – | – | – | – | – | – | –
